Data set [1] is described as follows: Pourability of 10% water suspending agent. The data set is classed as physicochemical. From the text: (§1) The formulation includes the following composition: 10 parts of polymorph A of Compound 1 or polymorph B of Compound 1 obtained in above examples, 3 parts of sodium naphthalenesulfonate formaldehyde condensate, 3 parts of sodium salt of alkyl naphthalene sulfonic acid polycondensate, 0.1 part of white carbon black, 0.1 part of xanthan gum, 2 parts of pesticide emulsifier 0201B, 5 parts of glycol, 0.2 part of WJX-1 and water which is used to complement up to 100 parts by weight were successively added to a mixing tank for mixing. After conducting coarse grinding and homogenization through high shear, the mixture was grinded in a sand mill and detected the particle size of sanding materials through a sedimentograph. After the particle size meeting the standard requirements, the mixture was filtered to obtain 10% water suspending agent of polymorph A of Compound 1 or polymorph B of Compound 1.

A short description of data set [2]: Particle size distribution of 10% water suspending agent. It counts as physicochemical.
Excerpt: as §1

The nature of data set [3]: Heat storage (54 ± 2° C.) of 10% water suspending agent. It counts as physicochemical.
Excerpt: as §1

The nature of data set [4]: Formulation sample (10% water suspending agent) kept at normal temperatures. The data set is classed as physicochemical.
Excerpt: as §1

The format of data set [5] is physicochemical. The text has this:
In the present invention, the slurry of the polymorph B of Compound 1 is heated in the presence of the solvent to convert into the polymorph A of Compound 1. The solvent is selected from the alcohol solvent and/or water. The alcohol solvent is selected from methanol, ethanol, n-propanol, isopropanol, n-butanol and n-pentanol. The adopted solvent can well convert the polymorph B into the polymorph A. In addition, the water as the solvent is well used to convert the polymorph B into the polymorph A. Furthermore, in the conversion process, at a temperature not more than 100° C., almost 100% conversion is completed at high yield within proper time. In the selection of the solvent, the water is selected to effectively reduce cost compared with the organic solvent. […] As an alternative, if the polymorph A with high concentration is in the water, then the polymorph A can be separated through evaporation of the water.

The nature of data set [6]: Suspensibility in processing of the formulation. It counts as physicochemical. The note with it: compared with polymorph B. From the text:
(§2) The polymorph A also presents better performance than the compound 1 prepared by the method (example 5) in the patent WO02010003350A1 in the aspect of the physical properties of the formulation.

Data set [7] can be described thus: Crystal form stability during long-term storage. It counts as physicochemical. From the text:
(§3) The advantages of the polymorph A in aspects such as chemical stability, filterability, solubility, hygroscopicity, melting point, solid density and flowability can have a significant impact on the developments of the production method and a formulation and on the quality and efficacy of a plant treating agent. […] The stability is favorable for determination of consistency of Compound 1. These features enable the polymorph A of Compound 1 to be well suitable for preparing a long effective and stable solid formulation so that the polymorph A has stable content of active component.

Data set [8] can be described thus: Dispersibility of 10% water suspending agent. It counts as physicochemical. The note with it: after normal temperature for 2 years and heat storage (54 ± 2° C./14 d).
Excerpt: as §1

The nature of data set [9]: Insecticidal activity (pharmacodynamic stability), polymorph A versus polymorph B. The note with it: compared with polymorph B.
Excerpt: as §2

Data set [10] can be described thus: Hygroscopicity on exposure to changing air humidity. It counts as physicochemical. The note with it: exposed to changing air humidity.
Excerpt: as §3

Entries after “also recorded” stand apart in the source; their conditions may differ.

In the case of `CNC(=O)c1cc(Cl)cc(Cl)c1NC(=O)c1cc(Br)nn1-c1ncc(Cl)cc1Cl` [Compound 1 Prepared by the Method in WO2010003350A1] [3-bromo-N-[2,4-dichloro-6-[(methylamino)carbonyl]phenyl]-1-(3,5-dichloro-2-pyridinyl)-1H-pyrazole-5-carboxamide, reference compound], in data set [1] (10% water suspending agent), the “Pourability: flow / flowability of the formulation sample” value (“Pourability: flow / flowability” below) was “suspending agent has poor” and the “Pourability: residues after washed” value is “unqualified”. For the same compound, the Particle size distribution entry in data set [2] (suspending agent, no storage time stated) is “distribution is wide”. Besides, the “Heat storage (54 ± 2° C.): state of the formulation sample” value in data set [3] (suspending agent, observed after heat storage for 3 days) was “solidified and could not shake”. The “Kept at normal temperatures: flowability of the formulation sample” value in data set [4] (suspending agent, after kept for 1 week) is given as “suspending agent has poor”.

With `CNC(=O)c1cc(Cl)cc(Cl)c1NC(=O)c1cc(Br)nn1-c1ncc(Cl)cc1Cl` [Polymorph A, 3-bromo-N-[2,4-dichloro-6-[(methylamino)carbonyl]phenyl]-1-(3,5-dichloro-2-pyridinyl)-1H-pyrazole-5-carboxamide], the “Solubility in the water” value in data set [5] was “very low solubility”. Besides, in [1] (10% water suspending agent), the “Pourability (overall verdict)” value was “qualified”, the “Pourability: flow / flowability” value is “good flowability; after” and the “Pourability: residues after washed” value is ≤ 0.5%; the pourability is. In data set [1] (in the processing of the formulation, compared with polymorph B), the Pourability result is “better pourability”. The Suspensibility entry in data set [6] is reported as “better suspensibility”. Moreover, in [7], the “Conversion into other crystal forms” value is “does not convert into other crystal forms; also recorded: may not be converted into other crystal forms” and the Stability entry was “excellent stability”. Further, the Particle size distribution result in data set [2] (10% water suspending agent, after normal temperature for 2 years and heat storage (54 ± 2° C./14 d), printed as almost unchanged) is reported as “unchanged”. For the same compound, the “Flowability (Dispersibility line)” value in data set [8] was “good dispersibility and good; also recorded: good flowability”. Further, in data set [9], the Insecticidal activity entry is “better insecticidal activity”. Besides, in data set [3] (10% water suspending agent, after kept for 14 days at 54 ± 2° C.), the “Heat storage (54 ± 2° C.): flowability of the formulation sample” value is recorded as “agent has good flowability”. For the same compound, the Hygroscopicity result in data set [10] is “does not present obvious hygroscopicity”. In [4] (10% water suspending agent, after kept for two years), the “Kept at normal temperatures: flowability of the formulation sample” value was “suspending agent has good”. Moreover, in data set [4] (10% water suspending agent, after kept for two years, printed as almost unchanged), the “Kept at normal temperatures: viscosity of the formulation sample” value is “unchanged viscosity”.

Turning to `CNC(=O)c1cc(Cl)cc(Cl)c1NC(=O)c1cc(Br)nn1-c1ncc(Cl)cc1Cl` [Polymorph B, 3-bromo-N-[2,4-dichloro-6-[(methylamino)carbonyl]phenyl]-1-(3,5-dichloro-2-pyridinyl)-1H-pyrazole-5-carboxamide], in data set [1] (10% water suspending agent), the “Pourability: flow / flowability” value was “suspending agent does not” and the “Pourability: residues after washed” value is listed as “unqualified”. Further, the Particle size distribution entry in [2] (10% water suspending agent, after kept at normal temperature for 1 week) is recorded as “wide”. The “Heat storage (54 ± 2° C.): state of the formulation sample” value in [3] (10% water suspending agent, observed after heat storage for 1 h) is “solidified and could not shake”. Further, in data set [10], the Hygroscopicity result is “obvious hygroscopicity”. The “Kept at normal temperatures: state of the formulation sample of the suspending agent” value in [4] (10% water suspending agent, observed after kept for 2 h) was “suspending agent is solidified”.
